Source: patent US20150031674A1, “SERINE/THREONINE KINASE INHIBITORS” (GENENTECH, INC., priority 2013, published 2015)

Biological target: human recombinant PAK1-KD protein (Homo sapiens, UniProt Q13153)
Assay: PAK1-KD (Kinase Domain) IC50 Zlyte Assay (FRET peptide substrate phosphorylation)
Conditions: Z'-LYTE, Biological Example 1

Sequence of human recombinant PAK1-KD protein (Q13153 270-521 limits assumed): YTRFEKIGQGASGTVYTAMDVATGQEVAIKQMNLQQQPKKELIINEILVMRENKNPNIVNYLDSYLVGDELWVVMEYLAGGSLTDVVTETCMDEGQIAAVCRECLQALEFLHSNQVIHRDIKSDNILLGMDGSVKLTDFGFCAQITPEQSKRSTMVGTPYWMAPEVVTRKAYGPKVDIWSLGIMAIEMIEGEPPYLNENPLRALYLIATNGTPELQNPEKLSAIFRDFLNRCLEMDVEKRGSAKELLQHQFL

Compound | Ki [nM]
Cc1cncc(-c2ccc(-c3cc4cnc(NC5COC5)nc4n(C[C@H]4CNCCO4)c3=O)c(Cl)c2)n1 [Example I-146, 6-[2-Chloro-4-(6-methylpyrazin-2-yl)phenyl]-8-[[(2R)-morpholin-2-yl]methyl]-2-(oxetan-3-ylamino)pyrido[2,3-d]pyrimidin-7-one] | 10.7
CNc1ncc2cc(-c3ccc(-c4cncc(C)n4)cc3Cl)c(=O)n(CCCCN)c2n1 [Compound I-42, 8-(4-aminobutyl)-6-[2-chloro-4-(6-methylpyrazin-2-yl)phenyl]-2-(methylamino)pyrido[2,3-d]pyrimidin-7-one] | 23.2
Cc1cccc(-c2ccc(-c3cc4cnc(NC5COC5)nc4n(CCOCCN)c3=O)c(Cl)c2)n1 [Example I-63, 8-[2-(2-Aminoethoxy)ethyl]-6-[2-chloro-4-(6-methyl-2-pyridyl)phenyl]-2-(oxetan-3-ylamino)pyrido[2,3-d]pyrimidin-7-one] | 0.3
CCc1cc(-c2cncc(C)n2)ccc1-c1cc2cnc(NC)nc2n(CCCN)c1=O [Example I-131, 8-(3-aminopropyl)-6-[2-ethyl-4-(6-methylpyrazin-2-yl)phenyl]-2-(methylamino)pyrido[2,3-d]pyrimidin-7-one] | 32.5
CNc1ncc2cc(-c3ccc(-c4cccc(C)n4)cc3Cl)c(=O)n(C[C@H]3[C@@H]4CN(C)C[C@@H]43)c2n1 [Example I-176, 6-[2-chloro-4-(6-methyl-2-pyridyl)phenyl]-2-(methylamino)-8-[[(1R,5S)-3-methyl-3-azabicyclo[3.1.0]hexan-6-yl]methyl]pyrido[2,3-d]pyrimidin-7-one] | 11
CNc1ncc2cc(-c3ccc(-c4cccc(C)n4)cc3C)c(=O)n(CCC3CNCCO3)c2n1 (single isomer, unassigned) [Example I-104, 6-(2-Methyl-4-(6-methylpyridin-2-yl)phenyl)-2-(methylamino)-8-(2-(morpholin-2-yl)ethyl)pyrido[2,3-d]pyrimidin-7(8H)-one] | 2.3
Cc1cccc(-c2ccc(-c3cc4cnc(NC5COC5)nc4n(CC(=O)N4CCNCC4)c3=O)c(Cl)c2)n1 [Example I-94, 6-[2-Chloro-4-(6-methyl-2-pyridyl)phenyl]-2-(oxetan-3-ylamino)-8-(2-oxo-2-piperazin-1-yl-ethyl)pyrido[2,3-d]pyrimidin-7-one] | 15.9
CNc1ncc2cc(-c3ccc(-c4cccc(C)n4)cc3C)c(=O)n(CCS(=O)(=O)CCN)c2n1 [Example I-174, 8-[2-(2-aminoethylsulfonyl)ethyl]-2-(methylamino)-6-[2-methyl-4-(6-methyl-2-pyridyl)phenyl]pyrido[2,3-d]pyrimidin-7-one] | 7.2
CCNc1ncc2cc(-c3ccc(-c4cncc(C)n4)cc3Cl)c(=O)n(CCC3CCNC(=O)C3)c2n1 (stereo not shown) [Example I-53, 6-[2-chloro-4-(6-methylpyrazin-2-yl)phenyl]-2-(ethylamino)-8-[2-(2-oxo-4-piperidyl)ethyl]pyrido[2,3-d]pyrimidin-7-one] | 96.2

The remaining compounds from weak to strong by Ki, led by results:

Ki [nM] | Compound
322 | CCNc1ncc2cc(-c3ccc(-c4cncc(C)n4)cc3Cl)c(=O)n(CCN3CCNCC3=O)c2n1 [Example I-90, 6-[2-Chloro-4-(6-methylpyrazin-2-yl)phenyl]-2-(ethylamino)-8-[2-(2-oxopiperazin-1-yl)ethyl]pyrido[2,3-d]pyrimidin-7-one]
110 | CNc1ncc2cc(-c3ccc(-c4cncc(C)n4)cc3Cl)c(=O)n(C3CCS(=N)(=O)CC3)c2n1 (stereo not shown) [Example I-181, 6-[2-chloro-4-(6-methylpyrazin-2-yl)phenyl]-8-(1-imino-1-oxo-thian-4-yl)-2-(methylamino)pyrido[2,3-d]pyrimidin-7-one]
104 | CNc1ncc2cc(-c3ccc(-c4cncc(C)n4)cc3Cl)c(=O)n(CC[C@@H](O)CO)c2n1 [Example I-80, 6-(2-Chloro-4-(6-methylpyrazin-2-yl)phenyl)-8-(3,4-dihydroxybutyl)-2-(methylamino)pyrido[2,3-d]pyrimidin-7(8H)-one]
43.1 | CNc1ncc2cc(-c3ccc(-c4csc(C5CC5)n4)cc3Cl)c(=O)n(C[C@@H]3CNCCO3)c2n1 [Example I-184, 6-[2-chloro-4-(2-cyclopropylthiazol-4-yl)phenyl]-2-(methylamino)-8-[[(2S)-morpholin-2-yl]methyl]pyrido[2,3-d]pyrimidin-7-one]
27.3 | CCNc1ncc2cc(-c3ccc(-c4cncc(C)n4)cc3Cl)c(=O)n(CC(O)CN)c2n1 (stereo not shown) [Example I-24, 8-(3-amino-2-hydroxy-propyl)-6-[2-chloro-4-(6-methylpyrazin-2-yl)phenyl]-2-(ethylamino)pyrido[2,3-d]pyrimidin-7-one]
22 | Cc1cccc(-c2ccc(-c3cc4cnc(NC5COC5)nc4n(CCCS(N)(=O)=O)c3=O)c(C)c2)n1 [Example I-161, 3-[6-[2-methyl-4-(6-methyl-2-pyridyl)phenyl]-2-(oxetan-3-ylamino)-7-oxo-pyrido[2,3-d]pyrimidin-8-yl]propane-1-sulfonamide]
18.3 | CCNc1ncc2cc(-c3ccc(-c4cncc(C)n4)cc3Cl)c(=O)n(C(C)COC3CNC3)c2n1 (single isomer, unassigned) [Example I-118, 8-[2-(azetidin-3-yloxy)-1-methyl-ethyl]-6-[2-chloro-4-(6-methylpyrazin-2-yl)phenyl]-2-(ethylamino)pyrido[2,3-d]pyrimidin-7-one]
12.5 | CNc1ncc2cc(-c3ccc(-c4cncc(C)n4)cc3Cl)c(=O)n(CC(=O)N3CC[C@H](N)C3)c2n1 [Example I-143, 8-[2-[(3S)-3-Aminopyrrolidin-1-yl]-2-oxo-ethyl]-6-[2-chloro-4-(6-methylpyrazin-2-yl)phenyl]-2-(methylamino)pyrido[2,3-d]pyrimidin-7-one]
8.54 | CNc1ncc2cc(-c3ccc(-c4cncc(C)n4)cc3Cl)c(=O)n(C[C@H]3OC[C@H](N)CO3)c2n1 [Example I-145, 8-[(5-Amino-1,3-dioxan-2-yl)methyl]-6-[2-chloro-4-(6-methylpyrazin-2-yl)phenyl]-2-(methylamino)pyrido[2,3-d]pyrimidin-7-one]
4.5 | CCNc1ncc2cc(-c3ccc(-c4cccc(C)n4)cc3C)c(=O)n(C3COC4(CCNC4)C3)c2n1 (stereo not shown) [Example I-122, 2-(Ethylamino)-6-[2-methyl-4-(6-methyl-2-pyridyl)phenyl]-8-(1-oxa-7-azaspiro[4.4]nonan-3-yl)pyrido[2,3-d]pyrimidin-7-one]
1.7 | Cc1cccc(-c2ccc(-c3cc4cnc(NC5COC5)nc4n(CCC4CNCCO4)c3=O)c(C)c2)n1 (single isomer, unassigned) [Example I-113, 6-(2-Methyl-4-(6-methylpyridin-2-yl)phenyl)-8-(2-(morpholin-2-yl)ethyl)-2-(oxetan-3-ylamino)pyrido[2,3-d]pyrimidin-7(8H)-one]
1.2 | CCc1cc(-c2cccc(C)n2)ccc1-c1cc2cnc(NC3COC3)nc2n(CC[C@H]2OC[C@H](N)CO2)c1=O [Example I-198, 8-[2-(5-Amino-1,3-dioxan-2-yl)ethyl]-6-[2-ethyl-4-(6-methyl-2-pyridyl)phenyl]-2-(oxetan-3-ylamino)pyrido[2,3-d]pyrimidin-7-one]
1 | CCNc1ncc2cc(-c3ccc(-c4cccc(C)n4)cc3C)c(=O)n(CCC3CNCCO3)c2n1 (single isomer, unassigned) [Example I-112, 2-(Ethylamino)-6-(2-methyl-4-(6-methylpyridin-2-yl)phenyl)-8-(2-(morpholin-2-yl)ethyl)pyrido[2,3-d]pyrimidin-7(8H)-one]
